Consider seven compounds from US4990663A, “Process for preparing halogenated aromatic amines” (E. I. Du POnt de Nemours and Company, priority 1989, dated 1991).

Data set [1] is described as follows: dechlorination in platinum-catalyzed hydrogenation, semi-continuous reactor. The settings on record: for Dechlor: ppm based on weight of product amine. As to the method:
The autoclave was sealed, the air was displaced with nitrogen and the autoclave was pressure tested. The nitrogen was replaced with hydrogen and the contents of the autoclave were heated to 80° C. The agitation was started and the contents of the autoclave were heated to 100° C. The pressure control regulator on the hydrogen feed was set at 540 psig and this pressure maintained in the autoclave throughout the reduction. The addition of 510 g of 3,4-dichloro-1-nitrobenzene crude (containing 11% 2,3- and 1% 2,5- isomers) was started. During the simultaneous feeding of the hydrogen and the nitroaromatic, the temperature was allowed to rise to 135° C. where it was controlled by the automated cooling water system. The addition of the nitroaromatic was completed in about 120 minutes. […] Heating at reaction conditions was continued for an additional 15 minutes. The autoclave was cooled, the hydrogen was displaced with nitrogen and the organic phase was separated.

For data set [2] the following is noted: per literature data; cited from earlier work.
A short description of data set [3]: storage stabilization of molten 3,4-dichloroaniline at 110° C. The following applies: 0.43 wt. % additive. As to the method: Round bottom drying ampuls of 20 ml capacity were dried by heating and were then cooled under nitrogen. Ten ml of test samples consisting of molten 3,4-dichloroaniline containing candidate stabilizers were pipetted into the ampuls which were sealed under nitrogen and stored in a 110° C. oven. Periodically an ampul of each sample was removed from the oven and evaluated.

The nature of data set [4]: dehalogenation inhibitor evaluation in laboratory batch hydrogenation. As to the method:
The autoclave was sealed, the air was displaced with nitrogen and the autoclave was pressure tested. The nitrogen was replaced with hydrogen and the contents of the autoclave were heated to 75° C. The agitation was started and the pressure control regulator on the hydrogen feed was set to a maximum of 500 psig. […] The reduction was terminated. The autoclave was cooled, the hydrogen was displaced with nitrogen and the organic phase was separated.
Hydrogenation temperature was controlled at 110° C. instead of 96° C.

Setting [5] is: 2.1 mole % inhibitor based on nitroaromatic.
Where [6] appears, read: 2.0 mole % inhibitor based on nitroaromatic.

Regarding `C1COCCN1` [morpholine, reference compound], the Dechlor in data set [1] (setting [5]) turned out to be 548 ppm.

In turn, `COCCCN` [3-methoxy-1-propylamine] gave a Dechlor in data set [1] (2.5 mole % inhibitor based on nitroaromatic) of 438 ppm.

In data set [1] (setting [6]), `NCCCO` [3-amino-1-propanol] came in with a Dechlor of 423 ppm. Also, in data set [2], the pKb was 4.1.

Turning to `COCCN` [2-methoxyethylamine], the Dechlor in data set [1] (setting [6]) is reported as 282 ppm. Further, the pKb in data set [2] is on record as 4.6. The Color entry is “Lt yellow” in data set [3] (7 days) and “Yellow” in data set [3] (60 days). Besides, the entries for the “High Boilers” value in data set [3] (7 days) and in data set [3] (60 days) were 0.05 Weight % and 0.07 Weight %, respectively. In data set [4] (Example 10, 1.0 weight % inhibitor, otherwise as Example 8), the “dechlorinated derivatives in product amine” value is reported as 0.05%. The dehalogenation inhibition entry in data set [4] (batch, similar conditions (96° C.)) is “good dehalogenation inhibitor being approximately equivalent to morpholine”.

Compound `OCCNCCO` [diethanolamine] registered a Dechlor in data set [1] (setting [5]) of 344 ppm. In addition, in data set [2], the negative-log Kb (pKb) was 5.0.

Turning to `CC(O)CN` (stereo not shown) [1-amino-2-propanol], the Dechlor in data set [1] (1.5 mole % inhibitor based on nitroaromatic) amounted to 470 ppm.

Consider `NCCO` [ethanolamine], for which the “dechlorination (total of aniline and monochloroanilines in the product calculated as p-chloroaniline)” value in data set [1] (Example 1, 0.4 weight % and 1.2 mole % inhibitor based on nitroaromatic, 135° C., 540 psig) was “less than 235 ppm”. For the same compound, in data set [4] (Example 8, 0.5 weight % inhibitor, 96° C., 7.9 mg platinum, terminated at 188 minutes), the “dechlorination (total of aniline and monochloroanilines calculated as p-chloroaniline)” value is given as 0.03%. For the same compound, the “dechlorinated derivatives in product amine” value in data set [4] (Example 9, 0.375 weight % inhibitor, 110° C., 15.8 mg platinum) turned out to be 0.003%. Further, the dehalogenation entry in data set [4] (batch, 96° C., concentrations near optimum for semicontinuous unit) is listed as “very low”.
